Literature values as cited in US20160076057A1, “INHIBITION OF METHANE AND HYDROGEN SULFIDE PRODUCTION IN ANAEROBIC DIGESTER ANIMAL FARMS, LANDFILLS, SEDIMENTS AND SEWER SYSTEMS” (Innovative Environmental Technologies, Inc., priority 2014, published 2016).

Legend:
[1] = system: F420-dependent NADP oxidoreductase enzyme; conditions: Sharma et al. (2011); for affinity for the model protein compared to natural ligand F420: 3D model structure, F420 binding cavity
[2] = system: Methanobrevibacter; conditions: Miller and Wolin (2001)
[3] = system: non-methanogens; conditions: Miller and Wolin (2001)
[4] = system: pure methanogenic bacteria; conditions: Wolin and Miller (2005)
[5] = system: cellulolytic bacteria; conditions: Wolin and Miller (2005)

## CC[C@H](C)C(=O)O[C@H]1CCC=C2C=C[C@H](C)[C@H](CC[C@@H]3C[C@@H](O)CC(=O)O3)[C@H]21 [compactin, compactin (mevastatin)]
[1]
  affinity for the model protein compared to natural ligand F420: more affinity
  blocking the activity site for methane production: very effective

## CC[C@H](C)C(=O)O[C@H]1C[C@@H](C)C=C2C=C[C@H](C)[C@H](CC[C@@H]3C[C@@H](O)CC(=O)O3)[C@H]21 [lovastatin, Lovastatin]
[1]
  affinity for the model protein compared to natural ligand F420: more affinity
  blocking the activity site for methane production: very effective
[2]
  methane formation: significantly inhibited
[2]; per ml of culture medium
  concentration that completely inhibited growth: 10 nmol/mL
[2]; per ml of culture medium, read-out: concentration giving 50% inhibition of growth
  IC50: 4 µM
[3]
  populations of the non-methanogens: not affected
[4]
  growth and activity of pure methanogenic bacteria: significantly reduced
[5]
  effect on cellulolytic bacteria: without any negative effect
